Reference: patent US20260285875A1, “INHIBITORS OF PARG” (858 Therapeutics, Inc., priority 2023, published 2026)

Target: T1, cellular PARG (Homo sapiens, UniProt Q86W56)
T1 construct: endogenous in cells; host or cells: HeLa
Test: Nuclear PAR accumulation assay (immunofluorescence high-content imaging, MMS-treated HeLa cells)
Format: cell-based
Conditions: 1 hour compound then MMS 50 μg/mL for an additional hour
Summary of the method: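 HeLa cells pretreated with compound for 1 h at 37° C, then given 50 μg/mL MMS for another hour. After methanol fixation, PAR was immunostained with DAPI nuclear counterstain; per-nucleus intensity and percent PAR-positive cells were imaged at 20× (≥1,000 cells/well). IC50 from four-parameter logistic fit.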

T1 sequence (Q86W56 whole entry): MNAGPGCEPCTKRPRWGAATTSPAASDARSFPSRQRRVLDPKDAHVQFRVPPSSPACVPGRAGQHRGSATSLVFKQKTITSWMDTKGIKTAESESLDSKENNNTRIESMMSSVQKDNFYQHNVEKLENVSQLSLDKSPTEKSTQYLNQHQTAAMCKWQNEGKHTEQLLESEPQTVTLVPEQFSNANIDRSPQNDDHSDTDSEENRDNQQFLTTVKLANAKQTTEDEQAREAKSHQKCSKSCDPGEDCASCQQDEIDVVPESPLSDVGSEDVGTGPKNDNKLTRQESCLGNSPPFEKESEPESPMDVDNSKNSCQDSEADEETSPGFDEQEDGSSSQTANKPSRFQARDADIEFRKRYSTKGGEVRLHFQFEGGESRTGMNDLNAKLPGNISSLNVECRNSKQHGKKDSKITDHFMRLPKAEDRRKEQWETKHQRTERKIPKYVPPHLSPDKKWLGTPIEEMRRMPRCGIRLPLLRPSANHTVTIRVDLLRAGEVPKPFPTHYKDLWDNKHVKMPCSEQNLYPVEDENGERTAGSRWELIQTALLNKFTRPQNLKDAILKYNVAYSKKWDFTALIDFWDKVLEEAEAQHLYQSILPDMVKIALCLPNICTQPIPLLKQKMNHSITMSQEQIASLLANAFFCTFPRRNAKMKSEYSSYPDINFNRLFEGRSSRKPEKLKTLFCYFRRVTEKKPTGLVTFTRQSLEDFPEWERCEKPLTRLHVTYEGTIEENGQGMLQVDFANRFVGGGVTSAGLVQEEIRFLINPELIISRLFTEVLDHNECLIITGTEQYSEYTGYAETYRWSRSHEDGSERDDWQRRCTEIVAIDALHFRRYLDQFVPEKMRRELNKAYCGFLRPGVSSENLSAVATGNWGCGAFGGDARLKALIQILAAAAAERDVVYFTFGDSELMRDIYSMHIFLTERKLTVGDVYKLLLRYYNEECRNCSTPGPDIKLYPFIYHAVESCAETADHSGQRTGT

IC50 [nM]	Structure (SMILES)
< 100	C#CCn1cc(CN2C(=O)c3cc(S(=O)(=O)NC4(C)CC4)ccc3N3C2=NC[C@H]3C)cn1 [Example 162, (R)-1-methyl-N-(1-methylcyclopropyl)-5-oxo-4-((1-(prop-2-yn-1-yl)-1H-pyrazol-4-yl)methyl)-1,2,4,5-tetrahydroimidazo[1,2-a]quinazoline-7-sulfonamide]
< 100	[2H]C([2H])(c1cnn(C)c1)N1C(=O)c2cc(S(=O)(=O)NC3(C)CC3)ccc2N2C1=NC[C@H]2C#Cc1cncc(N)c1 [Example 252, (R)-1-((5-aminopyridin-3-yl)ethynyl)-4-((1-methyl-1H-pyrazol-4-yl)methyl-d2)-N-(1-methylcyclopropyl)-5-oxo-1,2,4,5-tetrahydroimidazo[1,2-a]quinazoline-7-sulfonamide]
100 to 1000	C#C[C@H]1CN2C(=N1)N(Cc1cnn(C)c1)C(=O)c1cc(S(=O)(=O)NC3(C)CC3)ccc12 [Example 156, (S)-2-ethynyl-4-((1-methyl-1H-pyrazol-4-yl)methyl)-N-(1-methylcyclopropyl)-5-oxo-1,2,4,5-tetrahydroimidazo[1,2-a]quinazoline-7-sulfonamide]
< 100	[2H]C([2H])(c1cnn(C)c1)N1C(=O)c2cc(S(=O)(=O)NC3(C)CC3)ccc2N2C1=NC[C@H]2C#Cc1cncnc1NC [Example 263, (R)-4-((1-methyl-1H-pyrazol-4-yl)methyl-d2)-1-((4-(methylamino)pyrimidin-5-yl)ethynyl)-N-(1-methylcyclopropyl)-5-oxo-1,2,4,5-tetrahydroimidazo[1,2-a]quinazoline-7-sulfonamide]
< 100	CN1C(=O)c2cc(S(=O)(=O)NC3(C)CC3)ccc2N2C1=NC[C@H]2C#Cc1cnc2ccc(C#N)nn12 [Example 180, (R)-1-((6-cyanoimidazo[1,2-b]pyridazin-3-yl)ethynyl)-4-methyl-N-(1-methylcyclopropyl)-5-oxo-1,2,4,5-tetrahydroimidazo[1,2-a]quinazoline-7-sulfonamide]
< 100	[2H]C([2H])(c1cnn(C)c1)N1C(=O)c2cc(S(=O)(=O)NC3(C)CC3)ccc2N2C1=NC[C@H]2C#CC1(N(C)C)CC1 [Example 112, (R)-1-((1-(dimethylamino)cyclopropyl)ethynyl)-4-((1-methyl-1H-pyrazol-4-yl)methyl-d2)-N-(1-methylcyclopropyl)-5-oxo-1,2,4,5-tetrahydroimidazo[1,2-a]quinazoline-7-sulfonamide]
100 to 1000	Cn1cc(CN2C(=O)c3cc(S(=O)(=O)NC4(C)CC4)cc(Cl)c3N3C2=NC[C@H]3C#CCN)cn1 [Example 103, (R)-1-(3-aminoprop-1-yn-1-yl)-9-chloro-4-((1-methyl-1H-pyrazol-4-yl)methyl)-N-(1-methylcyclopropyl)-5-oxo-1,2,4,5-tetrahydroimidazo[1,2-a]quinazoline-7-sulfonamide]
< 100	CNC1(C#C[C@@H]2CN=C3N(Cc4cnn(C)c4)C(=O)c4cc(S(=O)(=O)NC5(C)CC5)ccc4N32)CC1 [Example 127, (R)-4-((1-methyl-1H-pyrazol-4-yl)methyl)-1-((1-(methylamino)cyclopropyl)ethynyl)-N-(1-methylcyclopropyl)-5-oxo-1,2,4,5-tetrahydroimidazo[1,2-a]quinazoline-7-sulfonamide]
< 100	[2H]C([2H])(c1cnn(C)c1)N1C(=O)c2cc(S(=O)(=O)NC3(C)CC3)c(NC)cc2N2C1=N[C@H]1CCC[C@H]12 [Example 222, (7aS,10aR)-6-((1-methyl-1H-pyrazol-4-yl)methyl-d2)-2-(methylamino)-N-(1-methylcyclopropyl)-5-oxo-6,7a,8,9,10,10a-hexahydro-5H-cyclopenta[4,5]imidazo[1,2-a]quinazoline-3-sulfonamide]
< 100	Cn1cc(CN2C(=O)c3cc(S(=O)(=O)NC4(C)CC4)ccc3N3C2=NC[C@H]3C#Cc2cnn(C)n2)cn1 [Example 140, (R)-4-((1-methyl-1H-pyrazol-4-yl)methyl)-1-((2-methyl-2H-1,2,3-triazol-4-yl)ethynyl)-N-(1-methylcyclopropyl)-5-oxo-1,2,4,5-tetrahydroimidazo[1,2-a]quinazoline-7-sulfonamide]
100 to 1000	[2H]C([2H])(c1cnn(C)c1)N1C(=O)c2cc(S(=O)(=O)NC3(C)CC3)ccc2N2C1=N[C@H]1CNC[C@H]12 [Example 106, (7aS,10aR)-6-((1-methyl-1H-pyrazol-4-yl)methyl-d2)-N-(1-methylcyclopropyl)-5-oxo-6,7a,8,9,10,10a-hexahydro-5H-pyrrolo[3′,4′:4,5]imidazo[1,2-a]quinazoline-3-sulfonamide]
< 100	[2H]C([2H])([2H])n1nccc1C#C[C@@H]1CN=C2N(Cc3cnn(C)c3)C(=O)c3cc(S(=O)(=O)NC4(C)CC4)ccc3N21 [Example 211, (R)-4-((1-methyl-1H-pyrazol-4-yl)methyl)-1-((1-(methyl-d3)-1H-pyrazol-5-yl)ethynyl)-N-(1-methylcyclopropyl)-5-oxo-1,2,4,5-tetrahydroimidazo[1,2-a]quinazoline-7-sulfonamide]
< 100	Cn1cc(CN2C(=O)c3cc(S(=O)(=O)NC4(C)CC4)ccc3N3C2=NC[C@H]3C#Cc2c(F)cnn2C)cn1 [Example 217, (R)-1-((4-fluoro-1-methyl-1H-pyrazol-5-yl)ethynyl)-4-((1-methyl-1H-pyrazol-4-yl)methyl)-N-(1-methylcyclopropyl)-5-oxo-1,2,4,5-tetrahydroimidazo[1,2-a]quinazoline-7-sulfonamide]
< 100	CSCC#C[C@@H]1CN=C2N(Cc3cnn(C)c3)C(=O)c3cc(S(=O)(=O)NC4(C)CC4)ccc3N21 [Example 164, (R)-4-((1-methyl-1H-pyrazol-4-yl)methyl)-N-(1-methylcyclopropyl)-1-(3-(methylthio)prop-1-yn-1-yl)-5-oxo-1,2,4,5-tetrahydroimidazo[1,2-a]quinazoline-7-sulfonamide]

The next lines start with the compound.

Structure (SMILES)	IC50 [nM]
Cn1cc(CN2C(=O)c3cc(S(=O)(=O)NC4(C)CC4)ccc3N3C2=NC[C@H]3C#CC(C)(C)O)cn1 [Example 69, (R)-1-(3-hydroxy-3-methylbut-1-yn-1-yl)-4-((1-methyl-1H-pyrazol-4-yl)methyl)-N-(1-methylcyclopropyl)-5-oxo-1,2,4,5-tetrahydroimidazo[1,2-a]quinazoline-7-sulfonamide]	100 to 1000
C#C[C@@H]1CN=C2N(Cc3cnn(C)c3)C(=O)c3cc(S(=O)(=O)NC4(C)CC4)cc(C4=CCN(C)CC4)c3N21 [Example 76, (R)-1-ethynyl-9-(1-methyl-1,2,3,6-tetrahydropyridin-4-yl)-4-((1-methyl-1H-pyrazol-4-yl)methyl)-N-(1-methylcyclopropyl)-5-oxo-1,2,4,5-tetrahydroimidazo[1,2-a]quinazoline-7-sulfonamide]	< 100
C#C[C@@H]1CN=C2N(C)C(=O)c3cc(S(=O)(=O)NC4(C)CC4)cc(Br)c3N21 [Example 38, (R)-9-bromo-1-ethynyl-4-methyl-N-(1-methylcyclopropyl)-5-oxo-1,2,4,5-tetrahydroimidazo[1,2-a]quinazoline-7-sulfonamide]	< 100
Cn1cc(CN2C(=O)c3cc(S(=O)(=O)NC4(C)CC4)ccc3N3C2=NC[C@H]3COc2ccccc2)cn1 [Example 28, (S)-4-((1-methyl-1H-pyrazol-4-yl)methyl)-N-(1-methylcyclopropyl)-5-oxo-1-(phenoxymethyl)-1,2,4,5-tetrahydroimidazo[1,2-a]quinazoline-7-sulfonamide]	< 100
Cn1cc(C#C[C@@H]2CN=C3N(Cc4cnn(C)c4)C(=O)c4cc(S(=O)(=O)NC5(C)CC5)ccc4N32)cn1 [Example 35, (R)-1-((1-methyl-1H-pyrazol-4-yl)ethynyl)-4-((1-methyl-1H-pyrazol-4-yl)methyl)-N-(1-methylcyclopropyl)-5-oxo-1,2,4,5-tetrahydroimidazo[1,2-a]quinazoline-7-sulfonamide]	< 100
C[C@@H]1CCN=C2N(c3nnc(C(F)F)s3)c3cc(S(=O)(=O)NC4(C)CC4)ccc3N21 [Example 85]	< 100
[2H]C([2H])(c1cnn(C)c1)N1C(=O)c2cc(S(=O)(=O)NC3(C)CC3)ccc2N2C1=NC[C@H]2C#C [Example 43, (R)-1-ethynyl-4-((1-methyl-1H-pyrazol-4-yl)methyl-d2)-N-(1-methylcyclopropyl)-5-oxo-1,2,4,5-tetrahydroimidazo[1,2-a]quinazoline-7-sulfonamide]	< 100
Cn1cc(CN2C(=O)c3cc(S(=O)(=O)NC4(C)CC4)cc(C4=CCCC4)c3N3CC(C)(C)N=C23)cn1 [Example 11, 9-(cyclopent-1-en-1-yl)-2,2-dimethyl-4-((1-methyl-1H-pyrazol-4-yl)methyl)-N-(1-methylcyclopropyl)-5-oxo-1,2,4,5-tetrahydroimidazo[1,2-a]quinazoline-7-sulfonamide]	< 100
CN(C)CC#C[C@@H]1CN=C2N(Cc3cnn(C)c3)C(=O)c3cc(S(=O)(=O)NC4(C)CC4)cc(Cl)c3N21 [Example 100, (R)-9-chloro-1-(3-(dimethylamino)prop-1-yn-1-yl)-4-((1-methyl-1H-pyrazol-4-yl)methyl)-N-(1-methylcyclopropyl)-5-oxo-1,2,4,5-tetrahydroimidazo[1,2-a]quinazoline-7-sulfonamide]	< 100
COc1ccc(C(=O)/C=C/C(=O)N2CCN(c3cc(S(=O)(=O)NC4(C)CC4)cc4c3N3C(=NC[C@H]3C)N(C)C4=O)CC2)cc1 [Example 57, (R,E)-9-(4-(4-(4-methoxyphenyl)-4-oxobut-2-enoyl)piperazin-1-yl)-1,4-dimethyl-N-(1-methylcyclopropyl)-5-oxo-1,2,4,5-tetrahydroimidazo[1,2-a]quinazoline-7-sulfonamide]	100 to 1000
COCc1nocc1CN1C(=O)c2cc(S(=O)(=O)NC3(C)CC3)ccc2N2C1=NC[C@H]2C [Example 7, (R)-4-((3-(methoxymethyl)isoxazol-4-yl)methyl)-1-methyl-N-(1-methylcyclopropyl)-5-oxo-1,2,4,5-tetrahydroimidazo[1,2-a]quinazoline-7-sulfonamide]	100 to 1000
